Where two headings read alike, the source gives them in different places.
Experiments:
NLRP3 inflammasome = biological target: T1, NLRP3 inflammasome (Homo sapiens, UniProt Q96P20); assay: NLRP3 inflammasome activation assay in LPS-primed, nigericin-stimulated PBMCs, IL-1β release; type: cell-based; conditions: 10 μM nigericin
T1 construct: freshly isolated from human peripheral blood from healthy donors; StemCells Technologies; host or cells: primary human PBMCs
Procedure, shortened: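 Fresh or cryopreserved human PBMCs primed with 100 ng/mL LPS for 3 h, pre-incubated 30 min with compound (0.00017-10 uM, or 2-fold 20-point series from 40 μM), then stimulated with 10 μM nigericin for 1.5 h at 37 °C. Supernatant IL-1β measured by ELISA or by HTRF (665/620 ratio).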

PBMCs = assay: CTG (CellTiter-Glo) viability assay of compound-treated LPS and nigericin stimulated PBMCs; type: cell-based, human; conditions: Homo sapiens, PBMC
Description: (§1) Human peripheral blood mononuclear cells (PBMCs), consisting of lymphocytes (T, B and NK cells), monocytes and dendritic cells, are freshly isolated from human peripheral blood from healthy donors. Cells are obtained through an IRB approved donor program by iXCells Biotechnologies where all the donors are tested for bacterial and viral infections. Cells are purified from peripheral blood using ficoll gradient centrifugation.
(§2) Fresh or cryopreserved PMBCs are seeded in V-bottom 96-well plate at 0.5-1×10^5 cells per well and incubated overnight at 37° C. with 5% CO2 in RPMI 1640 medium with GlutaMAX supplement, 4.5 g/L D-glucose, 10% Fetal Bovine Serum (FBS), […] Sodium Pyruvate, 1% Penicillin/Streptomycin, 10 mM HEPES and 0.05 mM of […]. Freshly isolated or cryopreserved KCs cells are seeded in flat-bottom 96-well plates at 0.6-1.5×10^5 cells/well and incubated overnight at 37° C., 5% CO2 in RPMI 1640 Medium with GlutaMAX supplement, FBS, 1% Penicillin/Streptomycin and 10 mM HEPES. The following day, the cells are primed with 100 ng/mL of lipopolysaccharides (LPS; Sigma Aldrich) in FBS-free RPMI 1640 for 3 h. After the priming step, the media is removed and PBMCs are pre-incubated with serial concentrations of test compounds (0.00017-10 uM) or vehicle (DMSO) for 30 min in FBS-free media prior to addition of the NLRP3 activator. Cells are then stimulated with 10 μM Nigericin (Sigma Aldrich; InvivoGen) for 1.5 h. Plates were centrifuged at 1,500 rpm for 3 minutes to pellet cells and supernatant was transferred into new plates for subsequent experiments.
Viability of compound treated cells is measured using CellTiter-Glo® assay (Promega, Madison, Wis.) that measures the ATP content of cells which is proportional to the number of live cells within a well. This is a counter-screen to establish that the reduction of IL-1β levels in LPS and nigericin stimulated and compound treated cells is not due to cytotoxicity, but rather through the inhibition of the inflammasome pathway. Compounds inhibiting NRLP3 inflammasome activation ultimately increase the viability of LPS and nigericin stimulated cells by blocking NLRP3 mediated pyroptosis that would otherwise lead to cell lysis.

TNFα = TNFα levels of LPS and nigericin stimulated PBMCs (counter-screen); type: cell-based; conditions: Homo sapiens, PBMC
Description: as §1, §2
For ELISA assays cells are seeded into 96-well plates. Post study, supernatants are removed and the levels of mature IL-1β, IL18 and TNFα (Quantikine ELISA, R&D systems) are measured in cell conditioned media by ELISA according to manufacturer's instructions.
TNFα levels of LPS and nigericin stimulated cells are measured by HTRF assay (Cisbio, Bedford, Mass.). […] Measuring TNFalpha production also serves as a technical counter-screen to eliminate compounds that interfere with the HTRF reagents. Thus compounds that inhibit both IL-1β and TNFα levels are triaged for either being non-selective for inflammasome or interfering with the HTRF readout.

THP-1 ASC-GFP cells = assay: THP-1 ASC-GFP speck assay (NLRP3 inflammasome activation, nigericin); type: cell-based; conditions: THP1-ASC-GFP; PMA-differentiated, LPS primed, 10 μM nigericin
Description: THP-1 ASC-GFP cell line was purchased from Invivogen, San Diego, for infammasome activation assay. THP-1 ASC-GFP cells stably express a 37.6 kDa ASC::GFP fusion protein that enables monitoring of spec formation by microscopy after activation of NLRP3 dependent inflammasome pathway. Cells were maintained at a density of 600,000 cells/mL in growth media consisting of RPMI 1640, 2 mM L-glutamine, 25 mM HEPES and 10% heat inactivated fetal bovine serum at 37° C. and 5% CO2. Cells were passaged every 3-4 days and used for assays for up to 20 passages.
THP-1 ASC-GFP cells were collected by centrifuging cells at 800 RPM for 5 minutes. Cell culture supernatant was removed and cells were re-suspended in fresh media at density of 1×10^6 cells/mL in assay media consisting of RPMI 1640, 2 mM L-glutamine, 25 mM HEPES and 10% heat inactivated fetal bovine serum. Phorbol 12-myristate 13-acetate (PMA) (Invivogen,tlrl-pma) was added to the cell suspension at a final concentration of 500 ng/ml and mixed thoroughly. 40,000 cells were added per well of a 384 well plate and differentiated into macrophages overnight at 37° C. and 5% CO2. Cells were primed with 1 μg/mL of lipopolysaccharide (Invivogen Ultrapure lipopolysaccharide from E. coli, tlrl-3pelps) in assay media for 3 hours at 37° C. and 5% CO2. After priming, media was removed and THP-1 ASC-GFP cells were preincubated with serially diluted test compounds with starting concentration of 40 μM followed by 2-fold dilution for a 20-point curve or vehicle (DMSO) for 30 min in assay media at 37° C. and 5% CO2. Cells were then stimulated with 10 μM nigericin (Invivogen, tlrl-nig-5) for 90 min at 37° C. and 5% CO2 to activate NLRP3 dependent inflammasome pathway and spec formation. After stimulation, cells were fixed with 4.8% paraformaldehyde (Electron Microscopy Sciences #15710-S) and incubated at room temperature for 15 min. Cells were then washed 3-times with 100 μL of phosphate buffered saline and permeabilized in the presence of premeablization/block buffer for 20 min at room temperature. Cells were then washed 3-times with 100 μL phosphate buffered saline and incubated for 1 hr at room temperature in the presence of hoechst. After staining with Hoechst, cells were washed 3-times with 100 μL phosphate buffered saline and imaged for ASC spec formation.
THP-1 ASC-GFP cells were imaged in 488 and Hoechst channels. Hoechst channel was used for cell count and 488 channel was used to identify number of GFP ASC specks in imaged fields. Percentage of cells with a spec was calculated by dividing the number of GFP positive spots by total number of cells.

[1] = LPS 100 ng/mL priming, read-out: IL-1B pIC50 (converted)
[2] = LPS and nigericin stimulated cells, read-out: CTG pIC50 (converted)
[3] = LPS and nigericin stimulated cells, read-out: TNFa pIC50 (converted)
[4] = PBMC, LPS priming, read-out: PMBC IL-1β IC50

T1 sequence (Q96P20 whole entry): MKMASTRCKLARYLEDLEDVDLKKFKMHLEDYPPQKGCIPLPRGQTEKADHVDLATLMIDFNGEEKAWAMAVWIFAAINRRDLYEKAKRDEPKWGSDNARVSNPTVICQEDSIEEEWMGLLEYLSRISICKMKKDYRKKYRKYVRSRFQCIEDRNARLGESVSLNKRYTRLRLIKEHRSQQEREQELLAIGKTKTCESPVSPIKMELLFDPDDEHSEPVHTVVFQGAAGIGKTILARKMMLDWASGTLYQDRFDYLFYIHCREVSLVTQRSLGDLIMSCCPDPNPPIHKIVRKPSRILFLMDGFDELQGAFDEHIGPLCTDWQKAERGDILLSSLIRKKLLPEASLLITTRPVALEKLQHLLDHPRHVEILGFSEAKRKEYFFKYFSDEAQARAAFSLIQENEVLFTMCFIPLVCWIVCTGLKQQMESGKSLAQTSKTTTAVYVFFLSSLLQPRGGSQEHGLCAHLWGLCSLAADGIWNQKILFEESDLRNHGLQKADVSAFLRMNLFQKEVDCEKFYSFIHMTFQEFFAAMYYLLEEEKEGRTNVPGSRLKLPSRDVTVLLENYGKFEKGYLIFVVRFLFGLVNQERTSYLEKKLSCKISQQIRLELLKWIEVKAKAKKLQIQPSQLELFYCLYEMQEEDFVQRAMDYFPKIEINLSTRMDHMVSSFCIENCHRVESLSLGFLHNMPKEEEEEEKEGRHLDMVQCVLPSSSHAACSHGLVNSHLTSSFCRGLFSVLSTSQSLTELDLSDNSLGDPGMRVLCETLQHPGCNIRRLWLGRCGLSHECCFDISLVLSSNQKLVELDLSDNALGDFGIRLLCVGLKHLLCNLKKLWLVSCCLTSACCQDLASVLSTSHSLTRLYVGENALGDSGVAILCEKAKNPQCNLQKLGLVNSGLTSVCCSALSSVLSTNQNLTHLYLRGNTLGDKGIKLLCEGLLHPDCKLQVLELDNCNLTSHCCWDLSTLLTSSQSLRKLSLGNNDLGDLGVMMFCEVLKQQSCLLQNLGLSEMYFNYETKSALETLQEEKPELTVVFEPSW

Structure (SMILES) | IC50 (NLRP3 inflammasome; [1]) [nM] | IC50 (PBMCs; [2]) [µM] | IC50 (TNFα; [3]) [µM] | IC50 (THP-1 ASC-GFP cells) [nM] | IC50 (NLRP3 inflammasome; [4]) [nM] | IC50 (PBMCs; read-out: PMBC CTG IC50) [µM] | IC50 (PBMCs; read-out: PMBC CTG IC50 (μM)) [µM] | IC50 (TNFα; read-out: PMBC TNFα IC50 (μM)) [µM]
CC(C)NC(=O)NS(=O)(=O)c1cnn2c1OCC(CN)C2 (stereo not drawn) | > 10000 | > 10 | > 10 | – | – | – | – | –
Cc1cc(C(C)C)c(NC(=O)NS(=O)(=O)c2cnn3c2OCCC3)c(C(C)C)n1 [drawing 415] | 1000 to 10000 | 1 to 10 | > 10 | – | – | – | – | –
CCn1nc(C(C)C)c(NC(=O)NS(=O)(=O)c2cnn3c2OC[C@@H](OC)C3)c1C(C)C [Example 39a, (S)—N-((1-ethyl-3,5-diisopropyl-1H-pyrazol-4-yl)carbamoyl)-6-methoxy-6,7-dihydro-5H-pyrazolo[5,1-b][1,3]oxazine-3-sulfonamide] | – | – | – | 400 | 1240 | 0.97 | – | –
CC(C)c1cc(C#N)nc(C(C)C)c1NC(=O)NS(=O)(=O)c1cnn2c1OCCC2 [Example 49, N-((6-cyano-2,4-diisopropylpyridin-3-yl)carbamoyl)-6,7-dihydro-5H-pyrazolo[5,1-b][1,3]oxazine-3-sulfonamide] | – | – | – | 2500 | 1250 | 0.56 | – | –
CCn1nc(C(C)C)c(NC(=O)NS(=O)(=O)c2cnn3c2OCCC3)c1C(C)C [Example 34, N-((1-ethyl-3,5-diisopropyl-1H-pyrazol-4-yl)carbamoyl)-6,7-dihydro-5H-pyrazolo[5,1-b][1,3]oxazine-3-sulfonamide] | – | – | – | 3700 | 3190 | 1.98 | – | –
COc1cc(C(C)C)c(NC(=O)NS(=O)(=O)c2cnn3c2OC[C@@H](N(C)C)C3)c(C(C)C)n1 [drawing 419] | 100 to 1000 | 0.1 to 1 | > 10 | – | – | – | – | –
CO[C@@H]1COc2c(S(=O)(=O)NC(=O)Nc3c(C(C)C)nn(C)c3C(C)C)cnn2C1 [Example 38a, (S)—N-((3,5-diisopropyl-1-methyl-1H-pyrazol-4-yl)carbamoyl)-6-methoxy-6,7-dihydro-5H-pyrazolo[5,1-b][1,3]oxazine-3-sulfonamide] | – | – | – | 2500 | 1140 | 0.68 | – | –
CC(C)c1cc(C(F)(F)F)nc(C(C)C)c1NC(=O)NS(=O)(=O)c1cnn2c1OCCC2 [drawing 421] | 100 to 1000 | < 0.1 | > 10 | – | – | – | – | –
CC(C)c1nn(CC2CC2)c(C(C)C)c1NC(=O)NS(=O)(=O)c1cnn2c1OCCC2 [Example 35, N-((1-(cyclopropylmethyl)-3,5-diisopropyl-1H-pyrazol-4-yl)carbamoyl)-6,7-dihydro-5H-pyrazolo[5,1-b][1,3]oxazine-3-sulfonamide] | – | – | – | 1400 | 950 | 0.12 | – | –
CN[C@@H]1COc2c(S(=O)(=O)NC(=O)Nc3c(C(C)C)cc(OC)nc3C(C)C)cnn2C1 [Example 41a, (S)—N-((2,4-diisopropyl-6-methoxypyridin-3-yl)carbamoyl)-6-(methylamino)-6,7-dihydro-5H-pyrazolo[5,1-b][1,3]oxazine-3-sulfonamide] | – | – | – | 680 | 370 | 0.013 | – | –
CC(C)c1ncc2c(c1NC(=O)NS(=O)(=O)c1cnn3c1OCCC3)CCC2 [drawing 422] | > 10000 | > 10 | > 10 | – | – | – | – | –
CC(C)c1ncc2c(c1NC(=O)NS(=O)(=O)c1cnn3c1OCCC3)CCC2 [Example 55, N-((3-isopropyl-6,7-dihydro-5H-cyclopenta[c]pyridin-4-yl)carbamoyl)-6,7-dihydro-5H-pyrazolo[5,1-b][1,3]oxazine-3-sulfonamide] | – | – | – | – | > 10000 | – | > 10 | > 10
CNc1cc(C(C)C)c(NC(=O)NS(=O)(=O)c2cnn3c2OCCC3)c(C(C)C)n1 [drawing 420] | 1000 to 10000 | 0.1 to 1 | > 10 | – | – | – | – | –
CCOc1cc(C(C)C)c(NC(=O)NS(=O)(=O)c2cnn3c2OCCC3)c(C(C)C)n1 [Example 50, N-((6-ethoxy-2,4-diisopropylpyridin-3-yl)carbamoyl)-6,7-dihydro-5H-pyrazolo[5,1-b][1,3]oxazine-3-sulfonamide] | – | – | – | 4700 | 2810 | 1.18 | – | –
CC(C)c1nn(C(C)C)c(C(C)C)c1NC(=O)NS(=O)(=O)c1cnn2c1OCCC2 [Example 33, N-((1,3,5-triisopropyl-1H-pyrazol-4-yl)carbamoyl)-6,7-dihydro-5H-pyrazolo[5,1-b][1,3]oxazine-3-sulfonamide] | – | – | – | 4000 | 4960 | 4.51 | – | –
Cc1onc(-c2ccccc2)c1NC(=O)NS(=O)(=O)c1cnn2c1OCCC2 [Example 8, N-((5-methyl-3-phenylisoxazol-4-yl)carbamoyl)-6,7-dihydro-5H-pyrazolo[5,1-b][1,3]oxazine-3-sulfonamide] | – | – | – | > 20000 | > 10000 | > 10 | – | –
COc1cc(C(C)C)c(NC(=O)NS(=O)(=O)c2cnn3c2OC[C@@H](N2CC(OC)C2)C3)c(C(C)C)n1 [Example 42a, Sodium (S)—N-((2,4-diisopropyl-6-methoxypyridin-3-yl)carbamoyl)-6-(3-methoxyazetidin-1-yl)-6,7-dihydro-5H-pyrazolo[5,1-b][1,3]oxazine-3-sulfonamide] | – | – | – | 1100 | 120 | 0.24 | – | –
COc1cc(C(C)C)c(NC(=O)NS(=O)(=O)c2cnn3c2OCC(CNC(C)=O)C3)c(C(C)C)n1 (racemic) [Example 40, N-((3-(N-((2,4-diisopropyl-6-methoxypyridin-3-yl)carbamoyl)sulfamoyl)-6,7-dihydro-5H-pyrazolo[5,1-b][1,3]oxazin-6-yl)methyl)acetamide] | – | – | – | 720 | 1500 | 1.25 | – | –
COc1cc(C(C)C)c(NC(=O)NS(=O)(=O)c2cnn3c2OCCC3)c(C(C)C)n1 [Example 30, N-((2,4-diisopropyl-6-methoxypyridin-3-yl)carbamoyl)-6,7-dihydro-5H-pyrazolo[5,1-b][1,3]oxazine-3-sulfonamide] | – | – | – | 1800 | 850 | 0.73 | – | –
